The nature of the test: antibacterial activity (organism not stated). The format is cell-based. The settings on record: at levels of 250 mcg./ml. The source says:
After overnight development in a system containing n-butanol 60:acetic acid:15: water 25, the strips were air dried and one set was sprayed with Riker penicillinase. Both sets were then subjected to bioautography on B. subtilis.

SMILES strings stand for the structures.

With `CC(C)=C(C(=O)O)N1C(=O)[C@H]2N=C(Cc3ccccc3)O[C@H]21` [oxazoline carboxylic acid, 2-benzyl-6-(1'-carboxy-2'-methylprop-1'-enyl)-1-oxa-3,6-diaza-4S,5R-bicyclo [3,2,0] hept-2-en-7-one], the antibacterial activity result was “inactive”.

These data come from patent US3950352A, “2,2-Dimethyl-3R-carboxy-6S-phenyl(or phenoxy)acetamido-1-oxa-4-aza-5R-bicyclo[3,2,0]heptan-7-one and processes for their production” (Queen's University, priority 1974, dated 1976).
